Assays:
KRAS G12V = KRAS G12V (Homo sapiens (Human), UniProt P01116, G12V); experiment: SPR binding affinity and kinetics, GTPγS-loaded KRAS G12V; details: GTPγS loaded protein, geomean
Outline: (§1)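 Kinetic and affinity values come from fitted SPR sensorgrams, the fit accepted on c2 values and randomly distributed residues. Dissociation was followed for at least 3600 seconds without any additional regeneration.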

NRAS Wild Type = NRAS Wild Type (Homo sapiens (Human), UniProt P01111); experiment: SPR binding affinity and kinetics, GTPγS-loaded NRAS Wild Type; details: GTPγS loaded protein, geomean
From the text: (§2) No additional regeneration was used.
(§3) Compound dissociation was monitored for at least 3600 seconds. […] No additional regeneration was used.
(§4) The adequateness of the fit was judged by c2 values and the randomness of residue distribution.

[1] = system: SW620 (colorectal cancer cell line); experiment: KRAS Cell Titer Glo (CTG) cell proliferation assay, SW620; assay type: cell-based; details: Homo sapiens, SW-620, 168 h; SW620 cells, 7-day CTG, geomean IC50
Outline: (§5)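 Compounds pre-dispensed in 0.1% DMSO before seeding H358 (300 cells/well), SW620 (750) or PANC08.13 (600); 7-day exposure at 37 °C, 5% CO2. Viability by CellTiter-Glo luminescence after 15 min at room temperature. Percent effect normalised to DMSO (0%) and 1 uM trametinib (100%); geomean IC50.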

[2] = system: H358 (non-small cell lung cancer cell line); experiment: KRAS Cell Titer Glo (CTG) cell proliferation assay, H358; assay type: cell-based; details: Homo sapiens, NCI-H358, 168 h; H358 cells, 7-day CTG, geomean IC50
Outline: as §5

[3] = system: PANC08.13 (pancreatic cancer cell line); experiment: KRAS Cell Titer Glo (CTG) cell proliferation assay, PANC08.13; assay type: cell-based; details: Homo sapiens, PANC-08-13, 168 h; PANC08.13 cells, 7-day CTG, geomean IC50
Outline: as §5

KRAS G12C = KRAS G12C (Homo sapiens (Human), UniProt P01116, G12C); experiment: SPR binding affinity and kinetics, GTPγS-loaded KRAS G12C; details: GTPγS loaded protein, geomean
Outline: as §1

HRAS Wild Type = HRAS Wild Type (Homo sapiens (Human), UniProt P01112); experiment: SPR binding affinity and kinetics, GTPγS-loaded HRAS Wild Type; details: GTPγS loaded protein, geomean
From the text: as §2, §3, §4

KRAS Wild Type = KRAS Wild Type (Homo sapiens (Human), UniProt P01116); experiment: SPR binding affinity and kinetics, GTPγS-loaded KRAS Wild Type; details: GTPγS loaded protein, geomean
Outline: as §1

KRAS G12D = KRAS G12D (Homo sapiens (Human), UniProt P01116, G12D); experiment: SPR binding affinity and kinetics, GTPγS-loaded KRAS G12D; details: GTPγS loaded protein, geomean
Outline: as §1

Chain of KRAS G12C (P01116 other isoform, or with tags, fused parts or gaps G12C): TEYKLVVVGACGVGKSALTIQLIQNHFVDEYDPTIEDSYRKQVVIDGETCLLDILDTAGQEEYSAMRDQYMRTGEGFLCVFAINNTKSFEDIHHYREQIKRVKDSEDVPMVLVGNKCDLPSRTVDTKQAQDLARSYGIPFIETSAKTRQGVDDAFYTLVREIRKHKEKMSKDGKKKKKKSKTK
Chain of KRAS G12D (P01116 other isoform, or with tags, fused parts or gaps G12D): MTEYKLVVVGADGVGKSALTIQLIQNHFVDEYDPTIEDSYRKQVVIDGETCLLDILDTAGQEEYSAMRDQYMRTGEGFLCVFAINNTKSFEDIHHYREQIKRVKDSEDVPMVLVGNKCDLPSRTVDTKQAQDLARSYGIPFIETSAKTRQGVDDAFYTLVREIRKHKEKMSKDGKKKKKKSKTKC
Chain of KRAS G12V (P01116 other isoform, or with tags, fused parts or gaps G12V): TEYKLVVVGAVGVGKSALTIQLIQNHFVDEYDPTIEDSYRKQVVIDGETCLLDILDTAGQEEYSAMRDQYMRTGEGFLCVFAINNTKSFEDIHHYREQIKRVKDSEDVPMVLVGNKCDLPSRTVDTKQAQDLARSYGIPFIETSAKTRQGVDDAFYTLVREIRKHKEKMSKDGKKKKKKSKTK
Chain of KRAS Wild Type (P01116 other isoform, or with tags, fused parts or gaps): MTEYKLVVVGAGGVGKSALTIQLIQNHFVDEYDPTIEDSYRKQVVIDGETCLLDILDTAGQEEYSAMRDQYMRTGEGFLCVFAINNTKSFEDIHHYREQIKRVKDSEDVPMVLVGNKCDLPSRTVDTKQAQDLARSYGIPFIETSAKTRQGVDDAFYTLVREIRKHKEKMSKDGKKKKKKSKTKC
Chain of HRAS Wild Type (P01112 2-184): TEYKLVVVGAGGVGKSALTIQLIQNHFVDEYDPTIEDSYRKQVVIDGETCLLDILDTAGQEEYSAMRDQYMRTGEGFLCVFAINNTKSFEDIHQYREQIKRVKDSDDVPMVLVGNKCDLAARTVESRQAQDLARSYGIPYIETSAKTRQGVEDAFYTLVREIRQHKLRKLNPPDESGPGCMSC
Chain of NRAS Wild Type (P01111 2-185): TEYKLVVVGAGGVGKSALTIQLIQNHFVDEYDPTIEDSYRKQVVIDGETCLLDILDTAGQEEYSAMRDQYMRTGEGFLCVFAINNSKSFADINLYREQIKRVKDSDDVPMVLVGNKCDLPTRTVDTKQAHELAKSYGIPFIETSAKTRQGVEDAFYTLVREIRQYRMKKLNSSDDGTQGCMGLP

| Structure (SMILES) | Kd (KRAS G12V) [nM] | Kd (NRAS Wild Type) [nM] | IC50 [1] [nM] | IC50 [2] [nM] | IC50 [3] [nM] | Kd (KRAS G12C) [nM] | Kd (HRAS Wild Type) [nM] | Kd (KRAS Wild Type) [nM] | Kd (KRAS G12D) [nM] |
| --- | --- | --- | --- | --- | --- | --- | --- | --- | --- |
| Fc1c(-c2c(C3CC3)c(Cl)cc3[nH]ncc23)nc2c3c(nc(OC[C@]45CCCN4CC4(CC4)C5)nc13)N1CCCOC[C@H]1CO2 [Example 19, (8aS)-2-{[(7′aR)-dihydro-1′H,3′H-spiro[cyclopropane-1,2′-pyrrolizin]-7′a(5′H)-yl]methoxy}-5-(6-chloro-5-cyclopropyl-1H-indazol-4-yl)-4-fluoro-8a,9,12,13-tetrahydro-8H,11H-7,10-dioxa-1,3,6,13a-tetraazanaphtho[1,8-ab]heptalene] | 9 | > 10000 | 103 | 62 | 3 | 5 | > 10000 | 8 | 6 |
| C[C@@H]1CCCc2cc3[nH]ncc3c(-c3nc4c5c(nc(OC[C@@]67CCCN6CC(=C6COC6)C7)nc5c3F)N3CCCOC[C@H]3CO4)c21 [Example 47, (8aS)-4-fluoro-5-[(5R)-5-methyl-5,6,7,8-tetrahydro-1H-benzo[f]indazol-4-yl]-2-{[(7aS)-2-(oxetan-3-ylidene)tetrahydro-1H-pyrrolizin-7a(5H)-yl]methoxy}-8a,9,12,13-tetrahydro-8H,11H-7,10-dioxa-1,3,6,13a-tetraazanaphtho[1,8-ab]heptalene] | 4 | > 10000 | 11 | 14 | 10 | 4 | > 10000 | 3 | 2 |
| C[C@@H]1CCCc2cc3[nH]ncc3c(-c3nc4c5c(nc(OC[C@@]67CCCN6C[C@H](F)C7)nc5c3F)N3CCCOC[C@H]3CO4)c21 [Example 36, (8aS)-4-fluoro-2-{[(2R,7aS)-2-fluorotetrahydro-1H-pyrrolizin-7a(5H)-yl]methoxy}-5-[(5R)-5-methyl-5,6,7,8-tetrahydro-1H-benzo[f]indazol-4-yl]-8a,9,12,13-tetrahydro-8H,11H-7,10-dioxa-1,3,6,13a-tetraazanaphtho[1,8-ab]heptalene] | 9 | > 10000 | 31 | 15 | 4 | 5 | > 10000 | 7 | 3 |
| COC/C=C1\CN2CCC[C@@]2(COc2nc3c4c(nc(-c5c(C6CC6)c(Cl)cc6[nH]ncc56)c(F)c4n2)OC[C@@H]2COCCCN32)C1 [Example 28, (8aS)-5-(6-chloro-5-cyclopropyl-1H-indazol-4-yl)-4-fluoro-2-{[(2Z,7aS)-2-(2-methoxyethylidene)tetrahydro-1H-pyrrolizin-7a(5H)-yl]methoxy}-8a,9,12,13-tetrahydro-8H,11H-7,10-dioxa-1,3,6,13a-tetraazanaphtho[1,8-ab]heptalene] | 2 | > 10000 | 26 | 19 | 4 | 2 | > 10000 | 3 | 1 |
| COC/C=C1\CN2CCC[C@@]2(COc2nc3c4c(nc(-c5c6c(cc7[nH]ncc57)CCC[C@H]6C)c(F)c4n2)OC[C@@H]2COCCCN32)C1 [Example 37, (8aS)-4-fluoro-2-{[(2Z,7aS)-2-(2-methoxyethylidene)tetrahydro-1H-pyrrolizin-7a(5H)-yl]methoxy}-5-[(5R)-5-methyl-5,6,7,8-tetrahydro-1H-benzo[f]indazol-4-yl]-8a,9,12,13-tetrahydro-8H,11H-7,10-dioxa-1,3,6,13a-tetraazanaphtho[1,8-ab]heptalene] | 4 | > 10000 | 25 | 9 | 4 | 3 | > 10000 | 3 | 2 |
| C[C@@H]1CCCc2cc3[nH]ncc3c(-c3nc4c5c(nc(OC[C@@]67CCCN6C/C(=C/F)C7)nc5c3F)N3CCCOC[C@H]3CO4)c21 [Example 55, (8aS)-4-fluoro-2-{[(2E,7aS)-2-(fluoromethylidene)tetrahydro-1H-pyrrolizin-7a(5H)-yl]methoxy}-5-[(5R)-5-methyl-5,6,7,8-tetrahydro-1H-benzo[f]indazol-4-yl]-8a,9,12,13-tetrahydro-8H,11H-7,10-dioxa-1,3,6,13a-tetraazanaphtho[1,8-ab]heptalene] | 2 | > 10000 | 6 | 24 | 13 | 1 | > 10000 | 3 | 2 |
| C=C1CN2CCC[C@@]2(COc2nc3c4c(nc(-c5c(C6CC6)c(Cl)cc6[nH]ncc56)c(F)c4n2)OC[C@@H]2CC[C@H](O)CN32)C1 [Example 23, (8aS,11S)-5-(6-chloro-5-cyclopropyl-1H-indazol-4-yl)-4-fluoro-2-{[(7aS)-2-methylidenetetrahydro-1H-pyrrolizin-7a(5H)-yl]methoxy}-8,8a,9,10,11,12-hexahydro-7-oxa-1,3,6,12a-tetraazabenzo[4,5]cyclohepta[1,2,3-de]naphthalen-11-ol] | 2 | > 10000 | 156 | 102 | 3 | 3 | > 10000 | 3 | 3 |
| C=C1CN2CCC[C@@]2(COc2nc3c4c(nc(-c5c(C(C)C)c(Cl)cc6[nH]ncc56)c(F)c4n2)OC[C@@H]2COCCCN32)C1 [Example 24, (8aS)-5-[6-chloro-5-(propan-2-yl)-1H-indazol-4-yl]-4-fluoro-2-{[(7aS)-2-methylidenetetrahydro-1H-pyrrolizin-7a(5H)-yl]methoxy}-8a,9,12,13-tetrahydro-8H,11H-7,10-dioxa-1,3,6,13a-tetraazanaphtho[1,8-ab]heptalene] | 5 | > 10000 | 18 | 45 | 6 | 4 | > 10000 | 7 | 5 |
| C=C1CN2CCC[C@@]2(COc2nc3c4c(nc(-c5c(C6CC6)ccc6[nH]ncc56)c(F)c4n2)OC[C@@H]2COCCCN32)C1 [Example 20, (8aS)-5-(5-cyclopropyl-1H-indazol-4-yl)-4-fluoro-2-{[(7aS)-2-methylidenetetrahydro-1H-pyrrolizin-7a(5H)-yl]methoxy}-8a,9,12,13-tetrahydro-8H,11H-7,10-dioxa-1,3,6,13a-tetraazanaphtho[1,8-ab]heptalene] | 50 | > 10000 | 400 | 275 | 17 | 31 | > 10000 | 91 | 51 |
| C=C1CN2CCC[C@@]2(COc2nc3c4c(nc(-c5c(C6CC6)c(Cl)cc6[nH]ncc56)c(F)c4n2)OC[C@@H]2COCCN32)C1 [Example 22, (8aS)-5-(6-chloro-5-cyclopropyl-1H-indazol-4-yl)-4-fluoro-2-{[(7aS)-2-methylidenetetrahydro-1H-pyrrolizin-7a(5H)-yl]methoxy}-8a,9,11,12-tetrahydro-8H-7,10-dioxa-1,3,6,12a-tetraazabenzo[4,5]cyclohepta[1,2,3-de]naphthalene] | – | > 10000 | 839 | 636 | 98 | – | > 10000 | – | 250 |

— patent publication US20250034173A1, “PYRIDO[4,3-D]PYRIMIDINE COMPOUNDS” (PFIZER INC., priority 2023, published 2025)
